Consider 1 compound from ChEMBL document CHEMBL5143537, “Quinazoline-based hydroxamic acid derivatives as dual histone methylation and deacetylation inhibitors for potential anticancer agents” (Bioorg Med Chem, 2022).

Experiment [1] has as its target T1, Protein deacetylase HDAC6 (Homo sapiens, UniProt Q9UBN7).
T1 sequence (Q9UBN7 whole entry): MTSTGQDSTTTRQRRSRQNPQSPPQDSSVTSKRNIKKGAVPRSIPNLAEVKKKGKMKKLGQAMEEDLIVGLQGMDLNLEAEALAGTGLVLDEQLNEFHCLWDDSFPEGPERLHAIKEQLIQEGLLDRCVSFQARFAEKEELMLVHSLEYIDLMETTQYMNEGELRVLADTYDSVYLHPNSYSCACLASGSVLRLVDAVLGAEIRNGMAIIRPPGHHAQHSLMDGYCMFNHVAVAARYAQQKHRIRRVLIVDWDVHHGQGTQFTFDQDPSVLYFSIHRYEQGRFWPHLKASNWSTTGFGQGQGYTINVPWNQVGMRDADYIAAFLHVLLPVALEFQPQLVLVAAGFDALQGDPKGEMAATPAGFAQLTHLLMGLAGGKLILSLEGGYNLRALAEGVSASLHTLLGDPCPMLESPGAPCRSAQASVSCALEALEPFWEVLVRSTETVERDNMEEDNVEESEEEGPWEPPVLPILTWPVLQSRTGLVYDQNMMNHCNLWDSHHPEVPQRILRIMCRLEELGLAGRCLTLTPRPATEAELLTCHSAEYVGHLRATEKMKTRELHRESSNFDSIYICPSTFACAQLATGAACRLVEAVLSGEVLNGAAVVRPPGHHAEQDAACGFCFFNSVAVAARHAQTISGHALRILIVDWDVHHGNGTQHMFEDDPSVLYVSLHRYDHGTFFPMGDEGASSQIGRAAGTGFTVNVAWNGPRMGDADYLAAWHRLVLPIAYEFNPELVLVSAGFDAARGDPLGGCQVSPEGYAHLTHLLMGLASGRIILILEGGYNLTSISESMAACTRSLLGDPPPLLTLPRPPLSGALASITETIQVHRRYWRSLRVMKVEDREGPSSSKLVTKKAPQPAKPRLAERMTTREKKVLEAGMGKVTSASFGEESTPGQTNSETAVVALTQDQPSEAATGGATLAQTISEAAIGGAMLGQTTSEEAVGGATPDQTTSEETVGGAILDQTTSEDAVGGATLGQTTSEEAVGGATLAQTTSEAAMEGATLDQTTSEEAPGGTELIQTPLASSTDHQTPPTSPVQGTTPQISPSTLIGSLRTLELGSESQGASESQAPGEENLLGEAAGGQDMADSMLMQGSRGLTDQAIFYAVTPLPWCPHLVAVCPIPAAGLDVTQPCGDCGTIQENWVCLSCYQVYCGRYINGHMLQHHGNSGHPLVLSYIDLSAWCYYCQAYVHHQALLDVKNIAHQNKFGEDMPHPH
In words: Inhibition of recombinant HDAC6 (unknown origin) using Ac-peptide-AMC as substrate preincubated for 15 mins followed by substrate addition and measured after 60 mins by fluorescence assay.

The subject of experiment [2] is HepG2. In words: Cell cycle arrest in human HepG2 cells assessed as accumulation at G0/G1 phase at 10 uM measured after 48 hrs by propidium iodide staining based flow cytometry (reference value: 55.24%). Type of experiment: functional. For orientation: A flow cytometer gives signals particle by particle.
Experiment [3] concerns K562. The experiment in a line: Antiproliferative activity against human K562 cells measured after 72 hrs by MTT assay. In kind it is functional, cell-based. Particulars: K562, 72 h.
In experiment [4] the test system is HepG2. The experiment in a line: Induction of apoptosis in human HepG2 cells measured after 48 hrs by Annexin V-FITC/propidium iodide staining based flow cytometry. Type of experiment: functional, cell-based. To be noted: dose 1.25-25 µM, DDE = dose-dependent effect.

SMILES strings stand for the structures.

With `COc1cc2nc(N3CCN(CCCCCC(=O)NO)CC3)nc(NC3CCN(Cc4ccccc4)CC3)c2cc1OC`, the IC50 (in general, the concentration needed to halve the response being measured) came to 13 nM in experiment [1] and 2600 nM in experiment [3]. In addition, the Activity in experiment [2] was 59.81%; in experiment [4], “Dde”.
